Some results are limits rather than exact numbers.

In the first assay the test system is primary hepatocytes isolated from rats. In words: Cell protective effects against doxorubicin in hepatocytes (WST-1 cell viability). In kind it is cell-based. The following applies: Hepatocyte; primary rat hepatocytes pretreated with compound for 30 min, then doxorubicin; viability by WST-1 after 24-48 h. How it is done: Various endogenous/exogenous attacks on the cells trigger the mechanisms of cell death which is broadly classified into two types, i.e. apoptosis or necrosis. Using these cell death mechanisms, in the present experimental example, primacy hepatocytes isolated from rats were treated with drugs which were clinically shown to result in serious side-effects of hepatocyte toxicity or various chemicals which derive cell death, and the compounds synthesized in the Examples were estimated for their hepatocyte protective effects, after 24-48 h. The substances used to derive hepatocyte death include CCl4, ActD, H2O2, doxorubicin, anti-Fas Ab/Actinomycin D, acetaminophen, EtOH, CdCl2, palmitate, stearate, cyclophosphamide, terfenadine, diclofenac, simvastatin, and adefovir. Primary hepatocytes were isolated using the method of Seglen P O (Experimental Cell Research 74 (1972) pp 450-454). Briefly, hepatocytes were isolated according to the two-step collagenase perfusion method, and dead cells were removed by low speed (500 rpm) centrifugation for 10 min using percoll gradient (Kreamer B L etc, In Vitro Cellular & Developmental Biology 22 (1986) pp 201-211). During this step, the viability of cells was maintained 90% or above. The cells were suspended in HepatoZYME media (Gibco BRL), and the number of cells was counted. 1.5×10^4 cells in 100 μl were placed into the collagen-coated 96-well plate (BD biocoat), and adhered on the bottom for 3-4 h.
In order to assess the hepatocyte protective effect, above adhered cells were pretreated with the Example compounds for 30 min. At this time, the concentration of the Example compounds were serially diluted by 2-fold or 3-fold over 5 steps starting from 30 uM, 10 uM or 1 uM depending on the experiments, and the final concentration of DMSO was adjusted to 0.2%. 30 min after the treatment by compounds, cells were treated by the substances deriving hepatocyte death or hepatotoxic drugs at the concentrations indicated in Table 1. After 24-48 h, the viability of cells was determined to estimate the hepatocyte protective effects. The viability of cells was determined using WST-1 (MK-400, […]) method by the absorbance at 440 nm. Hepatocyte protective effects of the Example compounds were represented by “EC50” which was calculated from measured values. “EC50” herein means the concentration of the compound at which 50% of maximum protective effect is observed in the experiment.
As for `OC[C@@H]1CSC(c2cc3cccc(NC4CCOC4)c3[nH]2)=N1` (stereo partly drawn) [Example 52, [(R)-2-(7-(tetrahydrofuran-3-yl)amino-1H-indol-2-yl)-4,5-dihydro-thiazol-4-yl]-methanol], the EC50 turned out to be 750 nM. As to `OC[C@@H]1CSC(c2cc3cc(Oc4cccnc4)cc(NC4CCCC4)c3[nH]2)=N1` [Example 61, [(R)-2-(5-(pyridin-3-yl)oxy-7-cyclopentylamino-1H-indol-2-yl)-4,5-dihydro-thiazol-4-yl]-methanol], the half-maximal effective concentration (EC50) was determined as 780 nM.

Regarding `OC[C@@H]1CSC(c2cc3cc(Oc4cccnc4)cc(NC4CCOCC4)c3[nH]2)=N1` [Example 62, [(R)-2-(5-(pyridin-3-yl)oxy-7-(tetrahydropyran-4-yl)amino-1H-indol-2-yl)-4,5-dihydro-thiazol-4-yl]-methanol], the half-maximal effective concentration (EC50) was determined as 3770 nM. On the same count and under the same terms, for `O=C1c2ccccc2C(=O)N1Cc1cc(NC2CCCC2)c2[nH]c(C3=N[C@H](CO)CS3)cc2c1` [Example 64, [(R)-2-(5-(isoindol-1,3-dion-2-yl)methyl-7-cyclopentylamino-1H-indol-2-yl)-4,5-dihydro-thiazol-4-yl]-methanol] the value was 540 nM. As for `O=C(O)C[C@@H]1CSC(c2cc3cc(Br)cc(NC4CCCC4)c3[nH]2)=N1` [Example 68, [(R)-2-(5-bromo-7-cyclopentylamino-1H-indol-2-yl)-4,5-dihydro-thiazol-4-yl]-acetic acid], the EC50 was determined as 490 nM. Same read-out and setting: for `O=C(O)C[C@@H]1CSC(c2cc3cc(F)cc(NC4CCCC4)c3[nH]2)=N1` [Example 71, [(R)-2-(5-fluoro-7-cyclopentylamino-1H-indol-2-yl)-4,5-dihydro-thiazol-4-yl]-acetic acid] the value was 1100 nM; for `O=C(O)[C@@H]1CSC(c2cc3cccc(NC4CCOCC4)c3[nH]2)=N1` [Example 78, [(R)-2-(7-(tetrahydropyran-4-yl)amino-1H-indol-2-yl)-4,5-dihydro-thiazol-4-yl]-carboxylic acid], 29400 nM; for `CCOc1cc(NC2CCCC2)c2[nH]c(C3=N[C@H](CC(=O)O)CS3)cc2c1` [Example 83, [(R)-2-(5-ethoxy-7-cyclopentylamino-1H-indol-2-yl)-4,5-dihydro-thiazol-4-yl]-acetic acid], 600 nM.

On to `CCCOc1cc(NC2CCCC2)c2[nH]c(C3=N[C@H](CC(=O)O)CS3)cc2c1` [Example 84, [(R)-2-(5-propyloxy-7-cyclopentylamino-1H-indol-2-yl)-4,5-dihydro-thiazol-4-yl]-acetic acid], for which the EC50 was determined as 1600 nM.

With `O=C(O)C[C@@H]1CSC(c2cc3cc(Oc4cccnc4)cc(NC4CCCC4)c3[nH]2)=N1` [Example 88, [(R)-2-(5-(pyridin-3-yl)oxy-7-cyclopentylamino-1H-indol-2-yl)-4,5-dihydro-thiazol-4-yl]-acetic acid], the concentration for a half-maximal effect (EC50) was found to be 1870 nM. `O=C(O)C[C@@H]1CSC(c2cc3cc(Oc4cccnc4)cc(NC4CCOCC4)c3[nH]2)=N1` [Example 90, [(R)-2-(5-(pyridin-3-yl)oxy-7-(tetrahydropyran-4-yl)amino-1H-indol-2-yl)-4,5-dihydro-thiazol-4-yl]-acetic acid]: the EC50 was 7920 nM. Regarding `Cc1cc(NC2CCOCC2)c2[nH]c(C3=N[C@H](CC(=O)O)CS3)cc2c1` [Example 93, [(R)-2-(5-methyl-7-(tetrahydropyran-4-yl)amino-1H-indol-2-yl)-4,5-dihydro-thiazol-4-yl]-acetic acid], the EC50 came out at 550 nM. As for `CS(=O)(=O)c1ccc(Oc2cc(NC3CCCC3)c3[nH]c(C4=N[C@H](CC(=O)O)CS4)cc3c2)cc1` [Example 94, [(R)-2-(5-(4-(methanesulfonyl)phenoxy)-7-cyclopentylamino-1H-indol-2-yl)-4,5-dihydro-thiazol-4-yl]-acetic acid], the EC50 stood at 28100 nM. Take `COC(=O)C[C@@H]1CSC(c2cc3cc(CS(C)(=O)=O)cc(NC4CCCC4)c3[nH]2)=N1` [Example 97, [(R)-2-(5-methanesulfonylmethyl-7-cyclopentylamino-1H-indol-2-yl)-4,5-dihydro-thiazol-4-yl]-acetic acid methyl ester]: the EC50 came out at 4100 nM.

As for `O=C(O)CC[C@@H]1CSC(c2cc3cc(Cl)cc(NC4CCCC4)c3[nH]2)=N1` [Example 101, 3-[(R)-2-(5-chloro-7-cyclopentylamino-1H-indol-2-yl)-4,5-dihydro-thiazol-4-yl]-propionic acid], the EC50 was 1000 to 10000 nM. As to `CCOC(=O)CC[C@@H]1CSC(c2cc3cc(F)cc(NC4CCCC4)c3[nH]2)=N1` [Example 108, 3-[(R)-2-(5-fluoro-7-cyclopentylamino-1H-indol-2-yl)-4,5-dihydro-thiazol-4-yl]-propionic acid ethyl ester], the half-maximal effective concentration (EC50) is less than 500 nM.

For `O=C(O)CC[C@@H]1CSC(c2cc3cc(F)cc(NC4CCCC4)c3[nH]2)=N1` [Example 109, 3-[(R)-2-(5-fluoro-7-cyclopentylamino-1H-indol-2-yl)-4,5-dihydro-thiazol-4-yl]-propionic acid], the concentration giving a half-maximal response (EC50) was found to be 610 nM. Turning to `CCOc1cc(NC2CCCC2)c2[nH]c(C3=N[C@H](CCC(=O)O)CS3)cc2c1` [Example 115, 3-[(R)-2-(5-ethoxy-7-cyclopentylamino-1H-indol-2-yl)-4,5-dihydro-thiazol-4-yl]-propionic acid], the EC50 was less than 1000 nM. For the molecule `O=C(O)CC[C@@H]1CSC(c2cc3cc(OC(F)(F)F)cc(NC4CCCC4)c3[nH]2)=N1` [Example 117, 3-[(R)-2-(5-trifluoromethoxy-7-cyclopentylamino-1H-indol-2-yl)-4,5-dihydro-thiazol-4-yl]-propionic acid], the concentration for a half-maximal effect (EC50) was less than 500 nM. Turning to `Cc1cc(NC2CCCC2)c2[nH]c(C3=N[C@@H](CC(=O)O)CO3)cc2c1` [Example 119, [(S)-2-(5-methyl-7-cyclopentylamino-1H-indol-2-yl)-4,5-dihydro-oxazol-4-yl]-acetic acid], the EC50 is 170 nM. Still for that read-out and setting: then `Cc1cc(NC2CCOCC2)c2[nH]c(C3=N[C@@H](CC(=O)O)CO3)cc2c1` [Example 120, [(S)-2-(5-methyl-7-(tetrahydropyran-4-yl)amino-1H-indol-2-yl)-4,5-dihydro-oxazol-4-yl]-acetic acid], with 1120 nM; and `O=C(O)C[C@H]1COC(c2cc3cc(Cl)cc(NC4CCCC4)c3[nH]2)=N1` [Example 121, [(S)-2-(5-chloro-7-cyclopentylamino-1H-indol-2-yl)-4,5-dihydro-oxazol-4-yl]-acetic acid], with 470 nM.

As for `O=C(O)C[C@H]1COC(c2cc3cc(Cl)cc(NCC4CCOCC4)c3[nH]2)=N1` [Example 122, [(S)-2-(5-chloro-7-(tetrahydropyran-4-yl)methylamino-1H-indol-2-yl)-4,5-dihydro-oxazol-4-yl]-acetic acid], the EC50 is 960 nM.

As for `Cc1cc(NC2CCCC2)c2[nH]c(-c3ncc(CO)s3)cc2c1` [Example 130, [2-(5-Methyl-7-cyclopentylamino-1H-indol-2-yl)-thiazol-5-yl]-methanol], the EC50 is 100 nM. Consider `OCc1csc(-c2cc3cccc(NC4CCCC4)c3[nH]2)n1` [Example 133, [2-(7-Cyclopentylamino-1H-indol-2-yl)-thiazol-4-yl]-methanol], for which the concentration for a half-maximal effect (EC50) worked out at 310 nM. On the same count and under the same terms, then `COC(=O)c1csc(-c2cc3cccc(NC4CCCC4)c3[nH]2)n1` [Example 134, [2-(7-Cyclopentylamino-1H-indol-2-yl)-thiazol-4-yl]-carboxylic acid methyl ester], with 510 nM; and `Cc1cc(NC2CCC(=O)CC2)c2[nH]c(C3=N[C@H](CC(=O)O)CS3)cc2c1` [Example 135, {(R)-2-[5-methyl-7-(4-oxo-cyclohexylamino)-1H-indol-2-yl]-4,5-dihydro-thiazol-4-yl}acetic acid], with 1260 nM. Take `c1cc(NC2CCCC2)c2[nH]c(C3=N[C@H](CN4CCCC4)CS3)cc2c1` [Example 158, Cyclopentyl-[2-((R)-4-pyrrolidin-1-ylmethyl-4,5-dihydro-thiazol-2-yl)-1H-indol-7-yl]-amine]: the concentration giving a half-maximal response (EC50) amounted to 910 nM. Regarding `NC[C@@H]1CSC(c2cc3cccc(NC4CCCC4)c3[nH]2)=N1` [Example 173, [2-((R)-4-aminomethyl-4,5-dihydro-thiazol-2-yl)-1H-indol-7-yl]-cyclopentyl-amine], the 50% effective concentration (EC50) is 1980 nM. On the same count and under the same terms, for `N[C@H]1CCN(CC[C@@H]2CSC(c3cc4cc(Cl)cc(NC5CCCC5)c4[nH]3)=N2)C1` [Example 176, {2-[(R)-4-((S)-3-amino-pyrrolidin-1-ylethyl)-4,5-dihydro-thiazol-2-yl]-5-chloro-1H-indol-7-yl}-cyclopentyl-amine] the value was greater than 1000 nM.

The same assay, now with this note: primary rat hepatocytes pretreated with compound for 30 min, then doxorubicin; viability by WST-1 after 24-48 h.
As for `OCC[C@@H]1CSC(c2cc3cc(Cl)cc(NC4CCOCC4)c3[nH]2)=N1` [Example 67, [(R)-2-(5-chloro-7-(tetrahydropyran-4-yl)amino-1H-indol-2-yl)-4,5-dihydro-thiazol-4-yl]-ethanol], the EC50 is greater than 1000 nM.

These data come from patent US8222414B2, “Indole compounds as an inhibitor of cellular necrosis” (LG Life Sciences Ltd., priority 2007, dated 2012).
